Results taken from patent US10138292B2, “Cell culture medium” (BIOLAMINA AB, priority 2010, dated 2018).

Legend:
[1] = tested on: human embryonic stem cells; test: Survival of dissociated human embryonic stem cells one day after plating on precoated dishes; type: cell-based; conditions: single cell suspension, O3 medium, 30 Kcells/cm^2
Description: In other aspects, the present disclosure provides a new material, isolated laminin-521, which permits human embryonic stem cell survival after dissociation into single cell suspension. The stem cells were dissociated into single cell suspension by Trypsin-EDTA treatment, pelleted by centrifugation, resuspended into O3 medium, filtered through a 40 μm sieve, and plated at a density of 30 Kcells/cm^2 on cell culture dishes precoated by either isolated laminin-521, laminin-511, or Matrigel. After one day in culture, the cells plated on Matrigel died, as is known in the art.

human ES cells = test: Long-term culture with single cell dissociation passaging (Example 1); type: cell-based
Protocol: Human ES cells were cultured on r-laminin-521-coated laboratory dishes in chemically defined O3 medium (described in Rodin et al., Nature Biotechnol., vol. 28, pp. 611-615 (2010)) at 37° C. in 5% CO2. Cells were routinely passed once every 10-12 days by exposure to Trypsin-EDTA solution (GIBCO Invitrogen) for 5 minutes at 37° C. They were then gently pipetted to break into single-cell suspension and defined trypsin inhibitor (GIBCO Invitrogen) was added. The cell suspension was centrifuged […], the supernatant discarded, the cell pellet resuspended in prewarmed O3 medium, and cells were then passed through a 40 μm sieve. After that cells were plated on new r-laminin-521-coated dishes at a concentration 30 Kcells/cm^2 (1:25-1:30 split ratio). Cells were fed once a day with fresh medium prewarmed in an incubator for 1 hour, except for the first day after a passage, when only a few drops of fresh medium were added. Control cells of the same line were cultured on Matrigel (BD Biosciences) in O3 medium as described in Rodin et al., Nature Biotechnol., vol. 28, pp. 611-615 (2010). Control cells were passaged in pieces.

hES cells [2] = test: Cell adhesion assay, 1 hour (Example 2); type: cell-based, human; conditions: not shown
Protocol: Tissue cell culture plates were coated overnight at 4° C. with sterile solutions of the ECM proteins, such as human recombinant LN-521, all at a concentration of 30 μg/ml (5 μg/cm^2). Control plates were coated with Matrigel according to the STEMCELL Technologies' instructions. Prior to use, dishes were pre-warmed in an incubator for one hour after which prewarmed O3 medium was added without additional washing of the dish. After applying a fresh LN-521 solution to a new dish, the remaining LN-521 solution could be used at least once more. All the adhesion, survival, and inhibition of survival experiments were carried out using fresh coating materials.
Briefly, 96-well plates were coated by extracellular matrix proteins as described above and blocked by O3 medium containing bovine serum albumin. The ES cells were plated at cell density of 50,000 cells/cm^2 onto extracellular matrix-coated plates and left to adhere for 1 hour in a cell incubator. After that the plates were washed 3 times with the medium to remove the non-adherent cells, and then the adherent cells were fixed for 20 minutes by 5% glutaraldehyde, stained by 0.1% Crystal Violet. (Kebo Lab, Spanga, Sweden, http://www.kebolab.se). After one hour and 3 washes with water, Crystal Violet was extracted with 10% acetic acid and quantified by measuring optical density at 570 nm. All the experiments were performed in quadruplicate.

hES cells [3] = test: In vivo imaging and migration assay; type: cell-based, human
Protocol: 24-well plates were coated by extracellular matrix proteins and blocked by O3 medium containing bovine serum albumin. The ES cells were plated at cell density of 30,000-40,000 cells/cm^2 onto extracellular matrix-coated plates and left to adhere for half an hour in a cell incubator. After that, the plate was transferred into high content imaging system Operetta (PerkinElmer) equipped with environmental control unit, which allowed to keep 37° C., 5% CO2. For two movies that were made, the brightfield images were taken once in 15 minutes during 24 hours after plating using Harmony software (PerkinElmer), exported, and analyzed using ImageJ software (NIH, the US). For migration assay the images were taken every seven minutes during 18 hours after plating. Images acquired between the fifth and seventh hours after plating were analyzed using MTrackJ plug-in (University Medical Center, Rotterdam, The Netherlands). 100 attached cells on each coating were traced and mean distances from the current to the previous point of the track were calculated. Error bars show standard error of the mean s.e.m. (n=100).

[4] = tested on: PI3K/Akt and MEK1/Erk pathways; test: Western blot with antibodies to phospho-Akt / phospho-Erk; type: cell-based, human; conditions: data not shown
Protocol: HS 181 cells were trypsinized into single cell suspension as described above. For inhibition experiments, the cells were kept in O3 medium with blocking antibodies or pathway inhibitors for 30 minutes and then 450K cells were plated on 35 mm dishes precoated with the appropriate matrix coating. For other experiments, same number of cells was plated directly after trypsinization. In all cases the cells were allowed to spread for 1 hour at 37° C., 5% CO2. After two washings in ice-cold PBS, the plates with cells were snap frozen in liquid nitrogen and stored at −80° C. To prepare samples for western blots and ELISA, the plates were slowly thawed and kept on ice with 100-150 μl of lysis buffer (50 mM Tris-HCl, pH7.5, 150 mM NaCl, 0.5% deoxycholate, 0.5% SDS, 1% Triton X-100, 1% Igepal, Complete™ (Roche) and Phospho-Stop™ (Roche)) on top. Then, the cells were scraped, pipetted and sheared through a 27G ¾″ needle. After that, the cell pellets were clarified by centrifugation at 16,100 rcf for 15 minutes at 4° C. For western blots, 4-12% gradient gels were used for SDS electrophoresis and the proteins were transferred to PVDF membranes. The membrane was hybridized with the antibody of interest according to the manufacturer's instructions. […] For the densitometry analysis the films were scanned at 2,400 dpi and analyzed by the Chemilmager5500 program (1D-Multi Line densitometry mode). […]

hES cells [5] = test: Clonal survival of individualized hES cells (Example 4); type: cell-based, human; conditions: mTeSR1 medium, 250 cells per cm^2, 5 days, alkaline phosphatase staining
Protocol: hES cells were plated in mTeSR1 medium on different coatings at a density of 250 cells per cm^2 and monitored after 5 days in culture using an alkaline phosphatase staining kit.
Next, combinations of laminin-521 and E-Cadherin were tested to determine whether the combinations could sustain clonal survival of the cells. Fixed amounts of laminin-521 were used for the cell culture dish coating in combination with titrated E-Cadherin.
Additional tests were performed to test the effects of various modifications to the mTeSR1 medium. A mixture of E-Cadherin to laminin-521 in a ratio of about 1:10 w/w was used to coat the plates. […] Time-lapse photography of the cells confirmed that laminin-521/E-Cadherin coatings facilitated cell survival through proliferation of the single cells, not through the aggregation of different cells.

Integrin α6β1 = Integrin α6β1 (Homo sapiens, UniProt P05556+P23229); conditions: cited from earlier work
Sequence of Integrin α6β1 (P23229 24-1130): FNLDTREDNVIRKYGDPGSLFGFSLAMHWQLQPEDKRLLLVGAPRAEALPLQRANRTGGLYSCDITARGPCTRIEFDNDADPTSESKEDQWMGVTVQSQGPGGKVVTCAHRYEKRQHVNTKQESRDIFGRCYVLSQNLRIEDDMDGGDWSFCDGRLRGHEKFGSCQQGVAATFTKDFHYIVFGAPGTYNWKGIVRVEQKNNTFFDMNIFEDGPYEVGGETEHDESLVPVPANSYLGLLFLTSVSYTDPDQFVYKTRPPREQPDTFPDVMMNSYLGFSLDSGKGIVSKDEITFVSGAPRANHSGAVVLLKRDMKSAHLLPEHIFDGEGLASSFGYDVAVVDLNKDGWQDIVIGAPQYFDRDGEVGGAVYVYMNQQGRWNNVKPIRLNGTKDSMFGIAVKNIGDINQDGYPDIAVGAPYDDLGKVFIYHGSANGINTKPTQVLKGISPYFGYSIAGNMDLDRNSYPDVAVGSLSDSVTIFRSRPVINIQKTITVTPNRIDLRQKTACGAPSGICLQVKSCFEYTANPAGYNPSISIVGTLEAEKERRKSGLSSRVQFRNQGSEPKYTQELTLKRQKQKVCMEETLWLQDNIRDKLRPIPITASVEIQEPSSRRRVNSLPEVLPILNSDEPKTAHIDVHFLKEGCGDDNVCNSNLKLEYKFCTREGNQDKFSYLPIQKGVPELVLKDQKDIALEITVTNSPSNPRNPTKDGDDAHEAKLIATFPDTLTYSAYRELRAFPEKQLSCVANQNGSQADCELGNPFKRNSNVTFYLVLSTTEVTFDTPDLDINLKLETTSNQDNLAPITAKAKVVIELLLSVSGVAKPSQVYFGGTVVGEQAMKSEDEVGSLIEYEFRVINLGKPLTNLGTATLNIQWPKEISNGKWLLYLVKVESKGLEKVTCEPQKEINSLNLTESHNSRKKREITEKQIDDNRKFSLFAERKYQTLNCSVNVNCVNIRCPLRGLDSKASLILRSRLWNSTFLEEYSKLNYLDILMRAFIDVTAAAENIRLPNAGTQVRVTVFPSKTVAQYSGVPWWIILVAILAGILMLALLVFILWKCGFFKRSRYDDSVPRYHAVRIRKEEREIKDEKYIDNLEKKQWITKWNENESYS
Sequence of Integrin α6β1 (P05556 21-798): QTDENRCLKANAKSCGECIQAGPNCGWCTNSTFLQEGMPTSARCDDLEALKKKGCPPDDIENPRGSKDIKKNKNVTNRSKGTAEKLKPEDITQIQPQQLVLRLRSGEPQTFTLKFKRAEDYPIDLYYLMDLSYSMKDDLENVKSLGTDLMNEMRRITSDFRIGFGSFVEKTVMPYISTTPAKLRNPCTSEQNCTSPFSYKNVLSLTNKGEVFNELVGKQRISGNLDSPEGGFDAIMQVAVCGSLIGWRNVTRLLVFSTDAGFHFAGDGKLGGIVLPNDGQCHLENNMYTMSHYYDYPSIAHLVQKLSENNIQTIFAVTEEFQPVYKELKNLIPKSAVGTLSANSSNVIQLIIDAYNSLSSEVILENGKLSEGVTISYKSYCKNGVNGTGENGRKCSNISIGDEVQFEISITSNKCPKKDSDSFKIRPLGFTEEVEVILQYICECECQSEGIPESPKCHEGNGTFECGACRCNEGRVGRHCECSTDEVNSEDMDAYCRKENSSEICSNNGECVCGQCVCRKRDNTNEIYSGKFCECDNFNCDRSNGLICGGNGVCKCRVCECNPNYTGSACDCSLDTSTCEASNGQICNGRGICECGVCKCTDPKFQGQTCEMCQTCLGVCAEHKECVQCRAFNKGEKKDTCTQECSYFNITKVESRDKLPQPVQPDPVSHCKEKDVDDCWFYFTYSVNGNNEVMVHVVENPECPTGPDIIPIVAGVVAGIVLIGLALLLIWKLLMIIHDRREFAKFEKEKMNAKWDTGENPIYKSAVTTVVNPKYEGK

Substance: LN-521: protein formed by joining α5, β2 and γ1 laminin chains; human recombinant, produced in HEK293 cells
- survival after one day in culture [1]: survived
- increase in the number of cells versus time compared with Matrigel (human ES cells; LN-521 single cell passaging vs Matrigel clumps): much faster rate
- passages with robust proliferation at stable and high rate (human ES cells; single cell suspension passaging every 10-12 days, 1:25 to 1:30 ratios (3 months)): at least 9 passages
- spreading of the cells after one hour compared with Matrigel or LN-111 (hES cells [2]): clearly better
- motility of hES cells compared with other coatings (hES cells [3]; between the fifth and seventh hours after plating): higher
- migration of cells compared with Matrigel (imaging) (hES cells [3]; in vivo imaging): much faster
- PI3K/Akt pathway activity (phospho-Akt western blot) [4]: active
- clonal survival of individualized hES cells (hES cells [5]): Neither laminin-521 nor E-Cadherin alone permitted efficient clonal survival
- binding affinity of integrin α6β1 compared with LN-111 (Integrin α6β1): higher
